The source of these data is a melting point compilation (Tetko et al.; mined from patent text by program, amines drawn as free bases though some values may be those of a salt).

Bounds are passed on as bounds.

A word on the melting point: it is the temperature, or range, at which the solid turns liquid. Turning to `O=[N+]([O-])CS(=O)(=O)c1ccccc1F`, the melting point is 59 °C.
The value for `C(=Cc1ccc2nc(-c3ccccc3)oc2c1)c1ccc(-c2nc3ccccc3o2)cc1` was 233 to 237 °C; that for `Cc1cccc(C)c1CNc1cc(C(=O)O)cc2c1nc(C)n2C` was 315 to 318 °C; that for `CCOC(=O)C(C)Oc1ccc(C(C)=O)cc1` (stereo not given) was 49.6 °C.
The value for `CS(=O)CCN1C(=O)CN=C(c2ccccc2)c2cc(Cl)ccc21` (stereo not given) was 166 to 167 °C; that for `O=C(OC(=O)c1cc2cc(O)ccc2s1)c1ccccc1` was 235 to 236 °C.
`COc1ccccc1C1(C(=O)O)CCCC1`: the melting point lay within 116 to 124 °C.
The value for `COc1ccc2c(c1)CCC1CCN=C21` (stereo not given) was 102 to 104 °C.
As for `c1ccc(Cn2c3c(c4ccccc42)CCC(Cc2nnn[nH]2)S3)cc1` (stereo not given), the figure is 160 to 165 °C; as for `CC#Cc1cnc(OC)nc1`, 88 to 89.5 °C.
As for `IC12C3C4C5C3C1C5C42` (stereo not given), the figure is 32 to 33 °C; as for `COC(=O)c1cc(-c2ccccc2)c(=O)n2c1-c1sccc1CN2C(C)=O`, 132 to 134 °C; as for `COc1ccncc1Nc1nc(N2CCOCC2)nc(-n2c(C(F)F)nc3ccccc32)n1`, 161 to 163 °C.
`CCCN1CC(C)C=C2c3cccc4c3C(CN4)CC21` (stereo not given): the melting point is 135 to 137 °C.
As for `Cc1nn(-c2ccccn2)cc1COc1ccc(CO)cc1`, the figure is 83 to 84 °C; as for `Cc1ccc(Nc2ncc(C#N)c(-c3ccc(C(C)(C)N)cc3)n2)cc1F`, 209 °C.
As for `CCOC(=O)C1(c2ccccc2)CCN(CCO)CC1`, the figure is 91.5 to 93 °C; as for `CSC(=NC#N)Nc1ccc(C#N)cc1`, 220 to 225 °C.
Consider `NS(=O)(=O)Nc1ccc(N2CCN(c3ccncc3)CC2)cc1`, for which the melting point is 216 to 219 °C.
The value for `CCCn1cc(-c2nc(C(N)=O)c(N)nc2-c2ccccc2)ccc1=O` was over 250 °C; that for `CC(=O)NC(=NNNc1ccccc1[N+](=O)[O-])c1ccccc1Cl` was 196 to 198 °C.
`CCCS(=O)c1cc(O)ccc1C` (stereo not given): the melting point fell in the range of 84 to 85 °C.
As for `O=C(Nc1ccc(Cl)nc1)c1ccc(Cl)o1`, the figure is 143 to 144 °C.
The compound `CN1C(=O)C2(COc3cc4c(cc32)OCCO4)c2c(C#N)cccc21` (stereo not given) gave a melting point of 196 to 197 °C.
The value for `Cc1nc(N)nc(N)c1N1CCN(c2ccc(C(=O)NCC(=O)O)cc2)CC1` was over 310 °C.
As for `CCS(=O)(=O)c1cnc2c(c1)nc(CC(C)(C)C)n2CC1CCOCC1`, the figure is 191 °C.
The value for `CN1Cc2c(Cl)ncn2-c2ccccc2C1=S` was 198 °C.
`CNC(=O)CN(c1ccc(Cl)cc1N(C)c1ccccc1)S(=O)(=O)c1ccc(OC)c(OC)c1` came in with a melting point of 149 °C.
As for `CCOC(=O)CC(=O)c1c(F)c(F)c(N2CCC(NC(C)=O)C2)c(F)c1F` (stereo not given), the figure is 90 to 92 °C.
As for `CCCc1nc(NS(=O)(=O)c2ccc(C(C)(C)C)cc2)c(-c2ccc(C)cc2)c(OCCOc2ncc(-c3cccs3)cn2)n1`, the figure is 165 to 166 °C; as for `COc1cc2c(Cl)c(C#N)cnc2cc1OCc1ccccc1`, 282 to 284 °C.
`C=Cc1cc2c(c3ccc(O)cc13)OCc1cc(O)ccc1-2` showed a melting point of over 220 °C.
The value for `Cc1ccc(S(=O)(=O)N(CCO)CCN(CCN(CCO)S(=O)(=O)c2ccc(C)cc2)S(=O)(=O)c2ccc(C)cc2)cc1` was 110 to 112 °C.
The value for `C#CCOC(=O)C=C(C)C=CC=C(C)C=Cc1c(C)cc(OC)c(C)c1C` was 94 to 95 °C; that for `CCOC(=O)C(C#N)=C(SC)N1CCc2ccccc2CC1` was 88 to 93 °C.
The value for `OC(Cc1ccc(Cl)cc1Cl)n1ccnc1` (stereo not given) was 139 to 141 °C; that for `O=C(Nc1ccc(F)cc1)c1ccccc1Cl` was 93.3 to 96.2 °C.
Take `CN1C(=O)CN(c2cccc(C(F)(F)F)c2)NC1=O`: the melting point lay within 163 to 165 °C.
Regarding `COc1cc(C(O)(C(F)(F)F)C(F)(F)F)cc(C)c1NS(C)(=O)=O`, the melting point was 109 to 110 °C.
As for `Cc1ccc(N=NN2C(C)(C)CC(O)CC2(C)C)cc1`, the figure is 85 to 86 °C; as for `Cc1cc(C)cc(C(N)=O)c1`, 148 to 149 °C; as for `CCCN(CCC)Cc1nc(-c2ncn3c2CN(C)C(=O)c2ccccc2-3)no1`, 130 to 132 °C.
In turn, `COC(=S)CCc1cc(C(C)(C)C)cc(C(C)(C)C)c1O` showed a melting point of 55 to 55.5 °C.
As for `COc1ccc(-c2ccc(=O)n(Cc3ccc(Cl)cc3F)c2)cn1`, the figure is 136 °C; as for `NC(=O)Cn1c(-c2ccc(Br)cc2)nc2cccnc21`, over 250 °C; as for `CC(C)(C)C(=O)Nc1nc(CN2CCC(c3c[nH]c4ccccc34)CC2)cs1`, 93 to 96 °C.
Consider `O=C(OCc1ccc(OCCCc2ccc(Cl)cc2)cc1)c1cccnc1`, for which the melting point was in the range of 67 to 68 °C.
The value for `CN1C(=O)CC[C@]2(C)c3ccc(Sc4ccc5cccc([N+](=O)[O-])c5n4)cc3CC[C@@H]12` was 199 to 200 °C; that for `CCCc1nc(O)c(-c2ccc(C)cc2)c(O)n1` was over 300 °C.
For `CCOC(=O)/C(=N\OC1CCNC1=O)c1csc(NC(c2ccccc2)(c2ccccc2)c2ccccc2)n1` (stereo not given), the melting point fell in the range of 209 to 210 °C.
The value for `Cn1c(-c2cc(O)c3c(c2)C(=O)c2cccc(O)c2C3=O)nc2ccccc21` was 266 to 267 °C.
`Nc1[nH]c(=O)[nH]c(=O)c1N` returned a melting point of 144 to 146 °C.
As for `COc1ccnc(C(=O)N[C@H]2COC(=O)[C@H](Cc3ccccc3)[C@@H](O)[C@H](C)OC2=O)c1OCc1ccccc1`, the figure is 110 to 114 °C.
In turn, `N#Cc1ccn(-c2ccc([N+](=O)[O-])cc2F)c1` registered a melting point of 117 to 119 °C.
The value for `COc1cccc(CNC(=O)c2nc3ccc(-c4nnn[nH]4)cc3c(=O)[nH]2)c1` was 258 to 260 °C; that for `O=c1ccn(-c2ccccc2F)nc1-c1ccnn1-c1ccccc1` was 124 to 125 °C.
The value for `Cn1cc(C(=O)NCCCO)c(Nc2ccc(Br)cc2F)cc1=O` was 78 to 83 °C.
As for `COc1cc2ncc(C#N)c(Nc3ccc(O)cc3Cl)c2cc1OC`, the figure is over 250 °C; as for `CCCCCN(CCC12CC3CC(CC(C3)C1)C2)C(=O)NCCCc1cccnc1`, 99.9 to 105 °C.
On to `COc1cccc([C@H]2O[C@H](CC(=O)Nc3cc(CCC(=O)O)ccc3F)C(=O)N(CC(C)(C)CO)c3ccc(Cl)cc32)c1OC`, for which the melting point is 151 to 152 °C.
`CNC(=O)c1c(I)c(NC(=O)COC)c(I)c(C(=O)NC(CO)C(=O)O)c1I` (racemic): the melting point is 247 to 248 °C.
In the case of `CCn1cc(C(=O)O)c(=O)c2cc(F)c(N3CCOC(CN(C)C)C3)c(F)c21` (stereo not given), the melting point is 185 to 188 °C.
The compound `O=C1Nc2ccccc2Cc2nccn21` registered a melting point of 238 to 240 °C.
The compound `CCCOc1cc(C(=O)CCC(=O)O)ccc1OCC` registered a melting point of 116 to 117 °C.
Consider `O=C1c2c(O)ccc(O)c2C(=O)c2c(F)ccc(F)c21`, for which the melting point was 301 to 304 °C.
